Here are results for 14 compounds from patent US20250304563A1, “ACTIVATORS OF EFFECTOR T CELLS” (Orum Therapeutics, Inc., priority 2022, published 2025).

Sequence of Cbl-b (36-427 aa truncated form, N-terminus Avi-tag) (Q13191 36-427): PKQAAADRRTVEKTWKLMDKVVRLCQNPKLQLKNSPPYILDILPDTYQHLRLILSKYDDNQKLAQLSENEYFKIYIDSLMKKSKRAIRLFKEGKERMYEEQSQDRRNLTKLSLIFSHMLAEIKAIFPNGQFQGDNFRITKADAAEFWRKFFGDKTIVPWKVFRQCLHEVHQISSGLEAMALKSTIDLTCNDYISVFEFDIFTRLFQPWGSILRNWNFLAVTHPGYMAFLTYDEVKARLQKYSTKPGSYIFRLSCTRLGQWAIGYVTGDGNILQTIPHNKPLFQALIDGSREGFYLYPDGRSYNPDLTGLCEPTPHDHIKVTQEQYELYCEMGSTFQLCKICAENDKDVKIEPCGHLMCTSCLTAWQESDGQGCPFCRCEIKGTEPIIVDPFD

This test deals with Cbl-b (36-427 aa truncated form, N-terminus Avi-tag) (Homo sapiens (Human), UniProt Q13191). Nature of the test: Cbl-b binding: TR-FRET displacement of BODIPY-FL probe. Here is the method:
Compounds were assessed for binding activity to Cbl-b by their ability to compete with and displace a probe comprised of BODIPY-FL fluorophore conjugated to a Cbl-b inhibitor (see Example 54 in WO2020264398). In the assay, a 36-427 aa truncated form of Cbl-b with an N-terminus Avi-tag was incubated 20 mM HEPES pH 7.5, 150 mM NaCl, 0.01% Triton X-100, 0.1% BSA, 0.5 mM TCEP buffer with streptavidin-terbium (Cisbio). After one hour of incubation at room temperature, 1 uM each of fluorescent probe and compound were combined with the reaction mixture. Compounds with Cbl-b binding activity competitively displace the fluorophore tagged inhibitor thereby disrupting the FRET signal from the terbium-BODIPY-FL complex. The reaction mixtures were incubated for one additional hour at room temperature to allow for competition between inhibitor and candidate compounds to occur. The time resolved FRET (TR-FRET) signal was then read at 520/620 […] (excitation/emission) using a Spectramax M5e plate reader (Molecular Devices) to measure probe displacement. Compounds with Cbl-b binding activity had decreased FRET signal owing to disruption of the terbium-BODIPY-FL FRET complex. Standard methods in PRISM were used to calculate the compound IC50 values from the experimental data.
On the technique in general: Time-resolved FRET reads energy transfer from a long-lived donor to a nearby acceptor.
The IC50 is the midpoint of a concentration-inhibition curve. Low readings indicate greater potency, high ones weaker potency. `CCSc1cc(C2(Cc3nncn3C)COC2)cc(N2Cc3c(C(=O)O)cc(CN4CCC[C@H](C)C4)cc3C2=O)n1` [Compound 166, 2-[6-(ethylsulfanyl)-4-{3-[(4-methyl-1,2,4-triazol-3-yl)methyl]oxetan-3-yl}pyridin-2-yl]-6-{[(3S)-3-methylpiperidin-1-yl]methyl}-1-oxo-3H-isoindole-4-carboxylic acid; trifluoroacetic acid]: the half-inhibitory concentration (IC50) was in the range of 5.01 to 20 nM.

`CCSc1cc(C2(Cc3nncn3C)COC2)cc(N2Cc3c(cc(CN4CCC[C@H](C)C4)cc3-c3nnn[nH]3)C2=O)n1` [Compound 167, 2-[6-(ethylsulfanyl)-4-{3-[(4-methyl-1,2,4-triazol-3-yl)methyl]oxetan-3-yl}pyridin-2-yl]-6-{[(3S)-3-methylpiperidin-1-yl]methyl}-4-(1H-1,2,3,4-tetrazol-5-yl)-3H-isoindol-1-one]: the half-maximal inhibitory concentration (IC50) is 5.01 to 20 nM.

In turn, `CC1CC(c2cc(NCCN=[N+]=[N-])nc(N3Cc4c(cc(CN5CCC[C@H](C)C5)cc4C(F)(F)F)C3=O)c2)(c2nncn2C)C1` (stereo partly drawn) [Compound 168, 2-{6-[(2-azidoethyl)amino]-4-[(1r,3s)-3-methyl-1-(4-methyl-1,2,4-triazol-3-yl)cyclobutyl]pyridin-2-yl}-6-{[(3S)-3-methylpiperidin-1-yl]methyl}-4-(trifluoromethyl)-3H-isoindol-1-one] displayed an IC50 of 20 to 100 nM.

`CCNc1cc([C@]2(c3nncn3C)C[C@H](C)C2)cc(N2Cc3c(cc(CN4CCC[C@H](C)C4)cc3S(C)(=O)=O)C2=O)n1` [Compound 172, 2-[6-(ethylamino)-4-[(1r,3s)-3-methyl-1-(4-methyl-1,2,4-triazol-3-yl)cyclobutyl]pyridin-2-yl]-4-methanesulfonyl-6-{[(3S)-3-methylpiperidin-1-yl]methyl}-3H-isoindol-1-one; trifluoroacetic acid] gave a half-maximal inhibitory concentration (IC50) of 100 to 1000 nM.

In turn, `C[C@H]1CCCN(Cc2cc(C=O)c3c(c2)C(=O)N(c2cc(C4(Cc5nncn5C)COC4)cc(NCCC#N)n2)C3)C1` [Compound 177, 3-{[6-(4-formyl-6-{[(3S)-3-methylpiperidin-1-yl]methyl}-1-oxo-3H-isoindol-2-yl)-4-{3-[(4-methyl-1,2,4-triazol-3-yl)methyl]oxetan-3-yl}pyridin-2-yl]amino}propanenitrile] yielded an IC50 of 1 to 5 nM.

`CCNc1cc(C2(c3nncn3C)CC(C)C2)cc(N2Cc3c(cc(CN4CCC[C@H](C)C4)cc3[S+](C)[O-])C2=O)n1` (stereo partly drawn) [Compound 178, 2-[6-(ethylamino)-4-[(1r,3s)-3-methyl-1-(4-methyl-1,2,4-triazol-3-yl)cyclobutyl]pyridin-2-yl]-4-methanesulfinyl-6-{[(3S)-3-methylpiperidin-1-yl]methyl}-3H-isoindol-1-one] displayed an IC50 of 100 to 1000 nM.

Take `CCNc1cc(C2(Cc3nncn3C)COC2)cc(N2Cc3c(cc(CN4CCC[C@H](C)C4)cc3S(C)(=O)=O)C2=O)n1` [Compound 179, 2-[6-(ethylamino)-4-{3-[(4-methyl-1,2,4-triazol-3-yl)methyl]oxetan-3-yl}pyridin-2-yl]-4-methanesulfonyl-6-{[(3S)-3-methylpiperidin-1-yl]methyl}-3H-isoindol-1-one; formic acid]: the IC50 fell in the range of 100 to 1000 nM.

Take `CCNc1cc(C2(Cc3nncn3C)COC2)cc(N2Cc3c(cc(CN4CCC[C@H](C)C4)cc3[S+](C)[O-])C2=O)n1` (stereo partly drawn) [Compound 180, 2-[6-(ethylamino)-4-{3-[(4-methyl-1,2,4-triazol-3-yl)methyl]oxetan-3-yl}pyridin-2-yl]-4-methanesulfinyl-6-{[(3S)-3-methylpiperidin-1-yl]methyl}-3H-isoindol-1-one]: the IC50 lay within 100 to 1000 nM.

In turn, `Cn1cnnc1CC1(c2cc(NCCC#N)nc(N3Cc4c(cc(CN5CCC6CC(O)CCC6C5)cc4C(F)(F)F)C3=O)c2)COC1` (centres unmarked) [Compound 183, 3-((6-(6-((6-hydroxyoctahydroisoquinolin-2 (1H)-yl)methyl)-1-oxo-4-(trifluoromethyl)isoindolin-2-yl)-4-(3-((4-methyl-4H-1,2,4-triazol-3-yl)methyl)oxetan-3-yl)pyridin-2-yl)amino)propanenitrile; trifluoroacetic acid] displayed a half-maximal inhibitory concentration (IC50) of 100 to 1000 nM.

`Cn1cnnc1CC1(c2cc(NCCC#N)nc(N3Cc4c(cc(CN5CCN(c6ccccc6O)CC5)cc4C(F)(F)F)C3=O)c2)COC1` [Compound 184, 3-((6-(6-((4-(2-hydroxyphenyl)piperazin-1-yl)methyl)-1-oxo-4-(trifluoromethyl)isoindolin-2-yl)-4-(3-((4-methyl-4H-1,2,4-triazol-3-yl)methyl)oxetan-3-yl)pyridin-2-yl)amino)propanenitrile; trifluoroacetic acid] showed a concentration for half-maximal inhibition (IC50) of 5.01 to 20 nM.

On to `Cn1cnnc1CC1(c2cc(NCCC#N)nc(N3Cc4c(cc(CN5CCc6ccc(O)cc6C5)cc4C(F)(F)F)C3=O)c2)COC1` [Compound 185, 3-((6-(6-((7-hydroxy-3,4-dihydroisoquinolin-2 (1H)-yl)methyl)-1-oxo-4-(trifluoromethyl)isoindolin-2-yl)-4-(3-((4-methyl-4H-1,2,4-triazol-3-yl)methyl)oxetan-3-yl)pyridin-2-yl)amino)propanenitrile; trifluoroacetic acid], for which the IC50 was 5.01 to 20 nM.

The compound `CCNc1cc(C(CO)(CCl)Cc2nncn2C)cc(N2Cc3c(cc(CN4CCC[C@H](C)C4)cc3C(F)(F)F)C2=O)n1` (stereo partly drawn) [Compound 187, 2-(4-(1-chloro-3-hydroxy-2-((4-methyl-4H-1,2,4-triazol-3-yl)methyl)propan-2-yl)-6-(ethylamino)pyridin-2-yl)-6-(((S)-3-methylpiperidin-1-yl)methyl)-4-(trifluoromethyl)isoindolin-1-one; hydrochloric acid] returned a 50% inhibitory concentration (IC50) of 20 to 100 nM.

Compound `CCSc1cc(C(CO)(CCl)Cc2nncn2C)cc(N2Cc3c(cc(CN4CCC[C@H](C)C4)cc3C(F)(F)F)C2=O)n1` (stereo partly drawn) [Compound 188, 2-(4-(1-chloro-3-hydroxy-2-((4-methyl-4H-1,2,4-triazol-3-yl)methyl)propan-2-yl)-6-(ethylthio)pyridin-2-yl)-6-(((S)-3-methylpiperidin-1-yl)methyl)-4-(trifluoromethyl)isoindolin-1-one; hydrochloric acid] gave an IC50 of 100 to 1000 nM.

`Cn1cnnc1CC1(c2cc(NCCC#N)nc(N3Cc4c(cc(CN5CC6(CCC6O)C5)cc4C(F)(F)F)C3=O)c2)COC1` (centres unmarked) [Compound 189, 3-((6-(6-((5-hydroxy-2-azaspiro[3.3]heptan-2-yl)methyl)-1-oxo-4-(trifluoromethyl)isoindolin-2-yl)-4-(3-((4-methyl-4H-1,2,4-triazol-3-yl)methyl)oxetan-3-yl)pyridin-2-yl)amino)propanenitrile; trifluoroacetic acid]: the IC50 was 5.01 to 20 nM.
